This is an account of results in patent US9656959B2, “Substituted pyridines as sodium channel blockers” (Purdue Pharma L.P., priority 2010, dated 2017).

The structures appear in SMILES notation. Read-outs that look alike come from different tables or passages of the source.

One test has as its target hNav1.7 (Homo sapiens (Human), UniProt Q15858). The test is described as follows: Electrophysiology (EP) assay, whole-cell patch clamp. It counts as cell-based. Conditions: hNav1.7 HEK-293 cells; for Ki: affinity for the inactivated state of the channel, read-out: Nav1.7 Activity (μM) EP assay Ki; for Kd: resting block dissociation constant, read-out: Nav1.7 Activity (μM) EP assay Kr. Here is the method:
The hNav1.7 expressing HEK-293 cells were plated on 35 mm culture dishes pre-coated with poly-D-lysine in standard DMEM culture media (Mediatech, Inc., Herndon, Va.) and incubated in a 5% CO2 incubator at 37° C. Cultured cells were used approximately 12-48 hours after plating.
On the day of experimentation, the 35 mm dish was placed on the stage of an inverted microscope equipped with a perfusion system that continuously perfuses the culture dish with fresh recording media. A gravity driven superfusion system was used to apply test solutions directly to the cell under evaluation. This system consists of an array of glass pipette connected to a motorized horizontal translator. The outlet of the shooter was positioned approximately 100 μm from the cell of interest.
Whole cell currents were recorded using the whole-cell patch clamp configuration using an Axopatch 200B amplifier (Axon Instruments, Foster City Calif.), 1322A A/D converter (Axon Instruments) and pClamp software (v. 8; Axon Instruments) and stored on a personal computer. Gigaseals were formed and the whole-cell configuration was established in voltage clamp mode, and membrane currents generated by hNav1.7 were recorded in gap-free mode. Borosilicate glass pipettes have resistance values between 1.5 and 2.0 MΩ when filled with pipette solution and series resistance (<5 MΩ) was compensated 75-80%. Signals were sampled at 50 kHz and low pass filtered at 3 kHz.
After establishing the whole-cell configuration in voltage clamp mode, voltage protocols were run to establish the 1) test potential, 2) holding potential, and 3) the conditioning potential for each cell.
After establishing the whole-cell configuration in voltage clamp mode, a standard I-V protocol was run to determine the potential at which the maximal current (Imax) is elicited. This potential was the test potential (Vt). […] This protocol also permitted determination of the holding potential at which all channels are in the resting state.
For compounds causing significant retardation of recovery from inactivation, an estimate of the affinity for the inactivated state of the channel (Ki) was generated using the following protocol. From the negative, no residual inactivation, holding potential, the cell was depolarized to the conditioning voltage for 2-5 seconds, returned to the negative holding potential for 10-20 ms to relieve fast inactivation and then depolarized to the test potential for ˜15 ms. This voltage protocol was repeated every 10-15 seconds, first to establish a baseline in the absence of the test compound, then in the presence of the test compound.
After a stable baseline was established, the test compound was applied and block of the current elicited by the test pulse assessed. In some cases, multiple cumulative concentrations were applied to identify a concentration that blocked between 40-60% of this current. Washout of the compound was attempted by superfusing with control solution once steady-state block was observed. An estimate of the K, was calculated as follows: Ki=[drug]*{FR/(1−FR)}, Eq. 1
where [drug] is the concentration of a drug, and FR=I(after drug)/I(control), Eq. 2 where I is the peak current amplitude. If multiple concentrations were used, Ki was determined from the fit of a logistic equation to FRs plotted against corresponding drug concentrations.
In the alternative, the voltage clamp protocol to examine hNav1.7 currents was as follows. First, the standard current-voltage relationship was tested by pulsing the cell from the holding voltage (Vh) of −120 mV by a series of 5 msec long square-shaped test pulses incrementing in +10 mV steps over the membrane voltage range of −90 mV to +60 mV at the pace of stimulation of 0.5 Hz. This procedure determines the voltage that elicits the maximal current (Vmax). […]
A general note: In patch-clamp work, channel activity is measured electrically.

The target in the next test is human Nav1.7 (Homo sapiens (Human), UniProt Q15858). Kind of test: FLIPR or FLIPR TETRA sodium dye assay with KCl and test article pre-incubation. In kind it is cell-based.
human Nav1.7, sequence (Q15858 with tags, fused parts or gaps limits assumed): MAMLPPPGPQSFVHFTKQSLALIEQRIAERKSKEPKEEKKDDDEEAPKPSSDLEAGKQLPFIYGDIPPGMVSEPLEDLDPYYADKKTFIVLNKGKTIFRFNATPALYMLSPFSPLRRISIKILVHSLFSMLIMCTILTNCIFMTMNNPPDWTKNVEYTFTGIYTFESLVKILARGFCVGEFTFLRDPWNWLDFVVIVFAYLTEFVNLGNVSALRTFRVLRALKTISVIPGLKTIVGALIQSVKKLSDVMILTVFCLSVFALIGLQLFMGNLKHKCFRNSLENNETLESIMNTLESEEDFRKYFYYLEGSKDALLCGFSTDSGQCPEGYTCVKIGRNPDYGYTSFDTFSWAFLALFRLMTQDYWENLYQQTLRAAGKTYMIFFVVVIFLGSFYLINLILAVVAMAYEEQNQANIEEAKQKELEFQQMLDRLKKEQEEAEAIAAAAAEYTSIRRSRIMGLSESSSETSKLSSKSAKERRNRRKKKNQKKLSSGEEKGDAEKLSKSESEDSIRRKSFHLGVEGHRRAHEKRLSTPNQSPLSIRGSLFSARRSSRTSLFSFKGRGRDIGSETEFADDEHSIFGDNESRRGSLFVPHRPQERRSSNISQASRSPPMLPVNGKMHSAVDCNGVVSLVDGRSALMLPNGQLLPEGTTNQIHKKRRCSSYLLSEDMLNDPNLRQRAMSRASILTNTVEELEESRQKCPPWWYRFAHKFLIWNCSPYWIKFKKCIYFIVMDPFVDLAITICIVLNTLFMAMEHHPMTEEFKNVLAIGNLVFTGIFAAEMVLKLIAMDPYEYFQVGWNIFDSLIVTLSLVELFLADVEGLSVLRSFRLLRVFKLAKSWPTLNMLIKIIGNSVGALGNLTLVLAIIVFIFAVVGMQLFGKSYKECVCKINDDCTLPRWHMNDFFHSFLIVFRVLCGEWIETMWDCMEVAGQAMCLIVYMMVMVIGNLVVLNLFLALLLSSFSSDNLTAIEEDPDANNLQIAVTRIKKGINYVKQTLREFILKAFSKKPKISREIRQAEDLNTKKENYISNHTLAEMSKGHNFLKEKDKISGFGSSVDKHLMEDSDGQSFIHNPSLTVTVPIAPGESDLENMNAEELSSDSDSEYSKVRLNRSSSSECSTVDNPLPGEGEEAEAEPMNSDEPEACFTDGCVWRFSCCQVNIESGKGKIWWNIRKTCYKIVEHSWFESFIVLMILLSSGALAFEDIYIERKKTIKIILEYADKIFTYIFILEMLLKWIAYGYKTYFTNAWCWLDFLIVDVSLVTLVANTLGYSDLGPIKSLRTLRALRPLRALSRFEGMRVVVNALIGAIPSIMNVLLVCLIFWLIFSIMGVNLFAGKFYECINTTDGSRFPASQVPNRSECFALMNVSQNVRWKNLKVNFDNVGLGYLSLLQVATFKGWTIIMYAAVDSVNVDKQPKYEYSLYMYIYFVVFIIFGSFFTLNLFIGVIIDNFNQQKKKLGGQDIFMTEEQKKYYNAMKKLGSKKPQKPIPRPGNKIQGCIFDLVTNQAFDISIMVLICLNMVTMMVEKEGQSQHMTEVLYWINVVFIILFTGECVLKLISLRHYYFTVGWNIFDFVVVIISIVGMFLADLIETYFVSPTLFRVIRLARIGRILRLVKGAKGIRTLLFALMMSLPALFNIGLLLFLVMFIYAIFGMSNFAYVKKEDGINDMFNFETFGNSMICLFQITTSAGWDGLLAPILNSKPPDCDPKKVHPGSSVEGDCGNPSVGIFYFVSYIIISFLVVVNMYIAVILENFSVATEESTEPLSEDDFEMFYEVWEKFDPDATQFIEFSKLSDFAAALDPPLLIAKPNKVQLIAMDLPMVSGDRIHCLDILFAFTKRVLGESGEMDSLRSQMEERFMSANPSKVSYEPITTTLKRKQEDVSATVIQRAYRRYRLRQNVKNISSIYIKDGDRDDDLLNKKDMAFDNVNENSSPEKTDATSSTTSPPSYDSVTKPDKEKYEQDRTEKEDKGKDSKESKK
Setting [1] is: recombinant Nav1.7/HEK293 cells, CoroNa Green sodium dye, veratridine + scorpion venom agonists, ± SEM.
Setting [2] is: read-out: Nav1.7 Activity (μM) FLIPR assay IC50 (μM) ± SEM.

hNav1.7, sequence (Q15858 other isoform, or with tags, fused parts or gaps): as the sequence (Q15858 with tags, fused parts or gaps limits assumed) above

On to `CC(=O)N[C@@H](CC(C)C)C(=O)Nc1cccc(-c2ccc(Oc3ccc(F)cc3)cc2)n1` [Compound 3, (S)-2-acetamido-N-(6-(4-(4-fluorophenoxy)phenyl)pyridin-2-yl)-4-methylpentanamide], for which the Ki at hNav1.7 turned out to be 0.194 ± 0.07 µM. Also, the IC50 at human Nav1.7 (setting [1]) came to 0.042 ± 0.02 µM.
For `CC(=O)N[C@@H](Cc1ccccc1)C(=O)Nc1cccc(-c2ccc(Oc3ccc(F)cc3)cc2)n1` [Compound 4, (S)-2-acetamido-N-(6-(4-(4-fluorophenoxy)phenyl)pyridin-2-yl)-3-phenylpropanamide] the same measures were 0.13 ± 0.03 µM and 0.064 ± 0.02 µM.
As to `CC(C)C[C@H](NC(=O)c1ccccn1)C(=O)Nc1cccc(-c2ccc(Oc3ccc(F)cc3)cc2)n1` [Compound 7, (S)-N-(1-((6-(4-(4-fluorophenoxy)phenyl)pyridin-2-yl)amino)-4-methyl-1-oxopentan-2-yl)picolinamide], on hNav1.7, the Ki amounted to 0.059 ± 0.01 µM and the Kd was found to be 18 ± 1 µM. At human Nav1.7 (setting [2]), the IC50 was determined as 0.067 ± 0.007 µM.
As for `CC(C)C[C@H](NC(N)=O)C(=O)Nc1cccc(-c2ccc(Oc3ccc(F)cc3)cc2)n1` [Compound 12, (S)-N-(6-(4-(4-fluorophenoxy)phenyl)pyridin-2-yl)-4-methyl-2-ureidopentanamide], at hNav1.7, the Ki was found to be 0.257 ± 0.06 µM and the Kd came to 5.06 µM. The IC50 at human Nav1.7 (setting [1]) was found to be 0.096 ± 0.004 µM.
Consider `CC(C)C[C@H](NC(=O)NC(C)(C)C)C(=O)Nc1cccc(-c2ccc(Oc3ccc(F)cc3)cc2)n1` [Compound 13, (S)-2-(3-(tert-butyl)ureido)-N-(6-(4-(4-fluorophenoxy)phenyl)pyridin-2-yl)-4-methylpentanamide], for which, at hNav1.7, the Ki was 0.075 ± 0.02 µM and the Kd amounted to 10.2 ± 0.2 µM. In addition, at human Nav1.7 (setting [1]), the IC50 amounted to 0.075 ± 0.017 µM.
As to `CC(=O)N[C@@H](Cc1c[nH]cn1)C(=O)Nc1cccc(-c2ccc(Oc3ccc(F)cc3)cc2)n1` [Compound 32, (S)-2-acetamido-N-(6-(4-(4-fluorophenoxy)phenyl)pyridin-2-yl)-3-(1H-imidazol-4-yl)propanamide], on hNav1.7, the Ki amounted to 0.025 µM and the Kd is 0.58 ± 0.1 µM. In addition, at human Nav1.7 (setting [2]), the IC50 turned out to be 0.086 ± 0.02 µM.
The corresponding values for `O=C(N[C@@H](Cc1c[nH]cn1)C(=O)Nc1cccc(-c2ccc(Oc3ccc(F)cc3)cc2)n1)C1CC1` [Compound 33, (S)-N-(1-((6-(4-(4-fluorophenoxy)phenyl)pyridin-2-yl)amino)-3-(1H-imidazol-4-yl)-1-oxopropan-2-yl)cyclopropanecarboxamide] are 0.206 ± 0.04 µM, 5.31 ± 0.56 µM and 0.11 ± 0.02 µM.
The corresponding values for `CS(=O)(=O)N[C@@H](Cc1c[nH]cn1)C(=O)Nc1cccc(-c2ccc(Oc3ccc(F)cc3)cc2)n1` [Compound 38, (S)-N-(6-(4-(4-fluorophenoxy)phenyl)pyridin-2-yl)-3-(1H-imidazol-4-yl)-2-(methylsulfonamido)propanamide] are 0.019 ± 0.01 µM, 1.2 ± 0.31 µM and 0.14 ± 0.03 µM.
Take `O=C(N[C@@H](CO)C(=O)Nc1cccc(-c2ccc(Oc3ccc(F)cc3)cc2)n1)c1cccnc1` [Compound 56, N-((S)-1-{6-[4-(4-Fluoro-phenoxy)-phenyl]-pyridin-2-ylcarbamoyl}-2-hydroxy-ethyl)-nicotinamide]: at hNav1.7, the Ki turned out to be 0.195 ± 0.07 µM and the Kd is 32.2 ± 8.38 µM. At human Nav1.7 (setting [2]), the IC50 came to 0.14 ± 0.05 µM.
For the compound `O=C(CO)N[C@@H](CO)C(=O)Nc1cccc(-c2ccc(Oc3ccc(F)cc3)cc2)n1` [Compound 60, (S)-N-{6-[4-(4-Fluoro-phenoxy)-phenyl]-pyridin-2-yl}-3-hydroxy-2-(2-hydroxy-acetylamino)-propionamide], on hNav1.7, the Ki stood at 0.113 ± 0.05 µM and the Kd was 4.94 ± 0.81 µM. Also, at human Nav1.7 (setting [1]), the IC50 is 0.46 ± 0.08 µM.
In the case of `O=C1NCCN1CCNc1cc([C@H](O)CO)cc(-c2ccc(Oc3ccc(F)cc3)cc2)n1` [Compound 66, (S)-1-(2-((4-(1,2-dihydroxyethyl)-6-(4-(4-fluorophenoxy)phenyl)pyridin-2-yl)amino)ethyl)imidazolidin-2-one], the Ki on hNav1.7 is 1.37 ± 0.17 µM. Moreover, on human Nav1.7 (setting [1]), the IC50 was 5 ± 0.88 µM.
In the case of `N[C@@H](CO)C(=O)Nc1cccc(-c2ccc(Oc3ccc(F)cc3)cc2)n1` [Compound 70, (S)-2-Amino-N-{6-[4-(4-fluoro-phenoxy)-phenyl]-pridin-2-yl}-3-hydroxy-propionamide], on hNav1.7, the Ki is 0.046 µM and the Kd is 0.803 ± 0.2 µM. Moreover, the IC50 at human Nav1.7 (setting [1]) was determined as 0.27 ± 0.032 µM.
The corresponding values for `O=C(Nc1cccc(-c2ccc(Oc3ccc(F)cc3)cc2)n1)C(O)CO` (centres unmarked) [Compound 72, N-(6-(4-(4-fluorophenoxy)phenyl)pyridin-2-yl)-2,3-dihydroxypropanamide] are 0.143 ± 0.03 µM, 8.91 ± 1.21 µM and 0.074 µM.
Take `Cn1cnc(C[C@H](NC(=O)CC(F)(F)F)C(=O)Nc2cccc(-c3ccc(Oc4ccc(F)cc4)cc3)n2)c1` [Compound 86, (S)-3,3,3-trifluoro-N-(1-((6-(4-(4-fluorophenoxy)phenyl)pyridin-2-yl)amino)-3-(1-methyl-1H-imidazol-4-yl)-1-oxopropan-2-yl)propanamide]: the IC50 on human Nav1.7 (setting [2]) was 0.084 ± 0.007 µM.
Same read-out and setting: as for `CC(C)C[C@H](NC(=O)CO)C(=O)Nc1cccc(-c2ccc(Oc3ccc(F)cc3)cc2)n1` [Compound 90, (S)-N-(6-(4-(4-fluorophenoxy)phenyl)pyridin-2-yl)-2-(2-hydroxyacetamido)-4-methylpentanamide], the figure is 0.07 ± 0.012 µM.
`O=C(Nc1cccc(-c2ccc(Oc3ccc(C(F)(F)F)cn3)cc2)n1)C(O)CO` (centres unmarked) [Compound 96, 2,3-dihydroxy-N-(6-(4-((5-(trifluoromethyl)pyridin-2-yl)oxy)phenyl)pyridin-2-yl)propanamide]: on human Nav1.7 (setting [2]), the IC50 was > 20 µM.
As for `Cn1cnc2ccc(C(=O)Nc3cccc(-c4ccc(Oc5ccc(F)cc5)cc4)n3)cc21` [Compound 98, N-(6-(4-(4-fluorophenoxy)phenyl)pyridin-2-yl)-1-methyl-1H-benzo[d]imidazole-6-carboxamide], the IC50 at human Nav1.7 (setting [1]) is > 20 µM.
`Cn1cnc(C[C@H](NC(=O)Nc2cccc(-c3ccc(Oc4ccc(F)cc4)cc3)n2)C(N)=O)c1` [Compound 99, (S)-2-(3-(6-(4-(4-fluorophenoxy)phenyl)pyridin-2-yl)ureido)-3-(1-methyl-1H-imidazol-4-yl)propanamide]: at human Nav1.7 (setting [2]), the IC50 is 0.667 ± 0.162 µM.

Usually IC50 stands for the concentration needed to halve the response being measured.
